Results as given in US20220054494A1, “METHODS FOR TREATING BLADDER AND URETHRA DYSFUNCTION AND DISEASE” (University of Pittsburgh - Of the Commonwealth System of …, priority 2019, published 2022).
“Also recorded” adds a separate entry of the source.

Assays:
AVP receptor V1a = assay: Western immunoblotting, kidney V1a vasopressin receptor; assay type: in vivo, rat; conditions: aged Fisher 344 rats; 8-AG 5 mg kg/day via drinking water, 1 month
Procedure: Western immunoblotting and transmission electron microscopy: Following these testing paradigms, rats were deeply anesthetized, bladders were removed, and one half of each bladder (using the smooth muscle layer) was homogenized using Lysing Matrix D in a FASTPREP-24™ instrument (MP BIOMEDICALS™, Solon, Ohio) in HBSS (5 mM KCl, 0.3 mM KH2PO4, 138 mM NaCl, 4 mM NaHO3, 0.3 mM Na2HCO3, 0.3 mM Na2HPO4, 5.6 mM glucose and 10 mM Hepes, pH 7.4) containing complete protease inhibitor cocktail (1 tablet/10 ml, ROCHE™, Indianapolis, Ind.) and phosphatase inhibitor cocktail (SIGMA®, 1:100). Whole rat kidney was also homogenized using the same procedure. After centrifugation (13000 rpm; 15 min at 4° C.), the membrane protein fraction was prepared by suspending the membrane pellets in lysis buffer containing 0.3 M NaCl, 50 mM Tris-HCl (pH 7.6), 0.5% Triton X-100, and the same concentration of protease inhibitors as above. […] The protein concentrations of the combined supernatants were determined using the PIERCE™ BCA protein assay (THERMO SCIENTIFIC™, Rockford, Ill.). […] As a loading control, total protein per sample was determined using BIO-RAD™ Stain Free SDS-PAGE gel technology. UV-activated protein fluorescence was imaged on a CHEMIDOC™ MP (BIO-RAD™). […] The volume (intensity) of each protein species was determined and normalized to total protein using Image Lab software (BIO-RAD™).

bladder smooth muscle = assay: Transmission electron microscopy of bladder smooth muscle; assay type: in vivo, rat
Excerpt: Transmission electron microscopy (TEM): The other half of each urinary bladder from each group (young, aged, and aged+treatment) were fixed in cold 2.5% glutaraldehyde in 0.01 M PBS. The specimens were rinsed in PBS, post-fixed in 1% osmium tetroxide with 1% potassium ferricyanide, rinsed in PBS, dehydrated through a graded series of ethanol and propylene oxide, and embedded in POLY/BED® 812 (Luft formulations). Semi-thin (300 nm) sections were cut on a LEICA® Reichart Ultracut, stained with 0.5% toluidine blue in 1% sodium borate and examined under the light microscope. Ultrathin sections (65 nm) were stained with uranyl acetate and Reynold's lead citrate and examined on JEOL 1400 transmission electron microscope with a side mount AMT 2k digital camera (Advanced Microscopy Techniques, Danvers, Mass.).
(§1) Transmission electron microscopy (TEM): The other half of each urinary bladder, proximal urethra, or external urethral sphincter from each group (young, aged, aged+8-AG treatment) was fixed in cold 2.5% glutaraldehyde in 0.01 M PBS. The specimens were rinsed in PBS, post-fixed in 1% osmium tetroxide with 1% potassium ferricyanide, rinsed in PBS, dehydrated through a graded series of ethanol and propylene oxide solutions, and embedded in POLY/BED® 812 (Luft formulations). Semi-thin (300 nm) sections were cut on a LEICA® Reichart Ultracut, stained with 0.5% Toluidine Blue in 1% sodium borate and examined under the light microscope. Ultrathin sections (65 nm) were stained with uranyl acetate as well as Reynold's lead citrate and examined on a JEOL 1400 transmission electron microscope with a side mount AMT 2k digital camera (Advanced Microscopy Techniques, Danvers, Mass.).
as §1, with “Half” for “The other half”, “bladder” for “bladder, proximal urethra, or external urethral sphincter”, “borate,” for “borate”, “and” for “as well as”

[1] = aged Fisher 344 rats, 8-AG 5 mg kg/day via drinking water, 1 month
[2] = aged rats, oral 8-AG 5 mg/kg/day, 6 weeks

## Nc1nc2[nH]c(N)nc2c(=O)[nH]1 [8-AG, 8-Aminoguanine]
AVP receptor V1a
  V1a vasopressin receptor in kidney: restored to a younger state; also recorded: restored to levels similar to the younger state
Bladder smooth muscle; [1]
  detrusor smooth muscle morphology (separation and degeneration of cells): restored to a younger state; also recorded: restored to levels similar to the younger state
  swelling and disruption of smooth muscle mitochondria: restored to a younger state; also recorded: restored to levels similar to the younger state
Bladder smooth muscle; aged rats, intravesical 100 μM 8-AG plus 10 μM DEA-NONOate, daily infusion 3-6 weeks
  bladder smooth muscle mitochondrial abnormalities: normalized; also recorded: restored
Bladder smooth muscle; [2]
  detrusor smooth muscle morphology (structural anomalies): reversed; also recorded: restored to a younger state
  swelling and disruption of smooth muscle mitochondria: reversed; also recorded: restored to a younger state
